In publication PMC8287944, “5-Fluorouracil blocks quorum-sensing of biofilm-embedded methicillin-resistant Staphylococcus aureus in mice” (Nucleic Acids Research, 2021):

How the values were obtained:
[1] = tested on: AI-2 production by HEK-293AI2 cells expressing MTAN and LuxS; assay: HEK-293AI2 / V. harveyi (MM32) AI-2 detection platform (AI-2 production by engineered human cells); assay type: cell-based, human cells; MTAN and LuxS derived from E. coli; settings: Homo sapiens, 24 h, HEK-293AI2 cells exposed 24 h; AI-2 in supernatant read by V. harveyi MM32 bioluminescence
Experimental: LuxS (MF688636) and MTAN (MF688635) transgenes derived from E. coli were codon-optimized for stable expression in mammalian cells. For the generation of double stable HEK-293-derived cell line HEK-293AI2 transgenic for simultaneous constitutive PhEFIα-driven MTAN and PhCMV-driven LuxS-eYFP expression, 250,000 cells were first transfected with 2000 ng of pFS168 (PhEFIα-MTAN-pA) and selected in culture medium containing 20 μg/ml blasticidin (cat. no. ant-bl-1; InvivoGen, San Diego, CA, USA) for two weeks. […] After 17 days of selection in medium containing 200 μg/ml (w/v) zeocin (cat. no. ant-zn-1; Invivogen, San Diego, CA, USA) and 20 μg/ml blasticidin, resistant monoclonal cells (HEK-293sFS26cx) were obtained by limiting dilution cloning and screened for AI-2 activity in their supernatants. […] The cell line was regularly tested for the absence of mycoplasma.
20 μl of HEK-293AI2 cells (10^4 cells per well) were resuspended in 20 μl Dulbecco's modified Eagle's medium (DMEM; Thermo Fisher, Basel, Switzerland, low glucose, without phenol red, cat. no. 11880–028) supplemented with 4 mM L-glutamine (Thermo Fisher, Basel, Switzerland, cat. no. 25030-024), 30 μg/ml kanamycin and 1% FCS and seeded into a poly-L-lysine-coated Black Greiner clear-bottom 384-well plate (cat. no. 3845; Corning, New York, USA) using a Multidrop Combi Reagent Dispenser (cat. no. 5840300; Thermo Fisher, Basel, Switzerland). Cells were incubated for 20 h and then 20 nL of individual compounds (stock solution in 5 mM in DMSO) or controls (stock solutions of novobiocin, 10 mM in DMSO; staurosporin, 20 mM in DMSO) were transferred with Echo 550 liquid handler (Labcyte, San Jose, CA, USA) into the plate.
Compound-treated cells were cultivated for 24 hours and the cell culture supernatants (10 μl) were transferred to dry black polystyrene 384-well plates (Corning, New York, USA, cat. no. 3571). The AI-2 activity was quantified by adding 40 μl per 384-well of V. harveyi MM32 AI-2 reporter strain, diluted 1:500 in AB-Medium from a stationary overnight culture grown in Luria Marine (LM)-medium containing 20 g of NaCl, 10 g of Bacto Tryptone (Difco Laboratories), and 5 g of yeast extract (BBL) ([25]). Plates were sealed with BREATHseal™ (cat. no. 7.676 050; Greiner Bio-One, Frickenhausen, Germany) and incubated for 4 h at 30°C and 200 rpm on a Multitron Pro shaker (Infors, Bottmingen, Switzerland). Bioluminescence was measured on an Envision 2104 Multilabel plate reader (Perkin Elmer, Waltham, USA) with 1 s integration time. […] The initial hit inclusion criteria were a toxicity score of less than 50% and an AI-2 activity reduction below the average of all compound activity three times the standard deviation (-49.39% of activity).
Figure 2. Cell-based primary screen for AI-2 biosynthesis inhibitors. (A) Detailed assay protocol of the primary screen using engineered mammalian cells to identify inhibitors of quorum sensing. […] Aliquots of 10 μl of culture supernatants were transferred to black-bottomed assay plates and mixed with 40 μl of V. harveyi MM32 (AI-2 biosensor). AI-2-induced bioluminescence was measured 4 h later and normalized against the controls. In a secondary screen, the dose-response relationships of hit compounds are analyzed. To simultaneously assess effects on cell viability, compound-treated cells were supplemented with PrestoBlue and incubated for 1 h prior to resorufin fluorescence quantification. (B) Z’-evaluation of the AI-2 inhibitor assay.

[2] = tested on: V. harveyi (BB170); assay: V. harveyi BB170 growth (OD600 after 24 h); assay type: cell-based, Vibrio harveyi; settings: V. harveyi BB170, OD600 after 24 h
Experimental: The test strain V. harveyi BB170 was grown overnight in Luria Marine (LM)-medium ([25]). The culture was 1:500 diluted in AB-medium (0.3 M NaCl, 10 mM potassium phosphate, 1 mM L-arginine, […], 1% glycerol) the next day, and then challenged with various chemical compounds. After 5 h of shaking at 200 rpm at 30°C, the bioluminescence of BB170 was quantified on a GENios Pro plate reader (Tecan, Männedorf, Switzerland).
Figure 3. Bioactivity of hit candidates against Vibrio harveyi. Effect on bacterial growth. V. harveyi (BB170) was grown in the presence of individual compounds (A–H) for 5 h and the bioluminescence (green circles) was quantified. After a total of 24 h, bacterial growth (+) was evaluated by measuring the optical density (OD600). The gray translucent background in (C) represents the narrow range within which the compound reduces bioluminescence without affecting growth.

[3] = tested on: SE 1457 wild type; assay: AI-2 activity of SE 1457 wild type; assay type: cell-based, Staphylococcus epidermidis; settings: 3 h, increasing 5-FU concentrations
Experimental: To confirm that the phenotype could be restored, 1 μM synthetic (S)-4,5-dihydroxy-2,3-pentanedione (DPD) (Biosynth Carbosynth, Staad, Switzerland) was used. After 3 h under static conditions at 37°C, the supernatant was analysed for AI-2 activity with V. harveyi (MM32).
Supplementary Figure 4 | Bioactivity of 5-FU against Staphylococcus epidermidis (SE). a) Quorum-sensing-associated AI-2 activity of SE 1457 grown for 3 h in the presence of different 5-FU concentrations (note log scale). b) Reversing effect of 1 µM DPD on the AI-2-reducing action of 5-FU (dashed line indicates AI-2 baseline of SE 1457 without 5-FU). Values represent 3 biological replicates expressed as mean ± SD (*, p < 0.05; **, p < 0.01).

With `O=c1[nH]cc(F)c(=O)[nH]1` [5-Fluorouracil] the IC50 [1] was 460 nM, the “Effect on V. harveyi growth” value [2] was “without decreasing the growth” and the “AI-2 activity of SE 1457” value [3] was “reduced AI-2 activity dose-dependently”.
